Data published in patent publication US20060276464A1, “Diarylsulfone sulfonamides and use thereof” (Wyeth, priority 2005, published 2006).
Several values for one entry are separate records, joined by “and”; a condition that tells them apart may be missing. Equal entries are not always repeated. Where two headings read alike, the source gives them in different places.

Key:
[1] = molecular target: T1, SFRP-1 (Homo sapiens, UniProt Q8N474); experiment: Fluorescence polarization binding assay (competitive displacement of a probe compound from SFRP-1); details: fluorescence anisotropy, 45 nM SFRP-1, 20 nM probe;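 also: test compound competes with a fluorescent probe held by SFRP-1, seen as a drop in probe anisotropy after incubation in darkness, with anisotropy as function of rising compound dose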
T1 sequence (Q8N474 32-314): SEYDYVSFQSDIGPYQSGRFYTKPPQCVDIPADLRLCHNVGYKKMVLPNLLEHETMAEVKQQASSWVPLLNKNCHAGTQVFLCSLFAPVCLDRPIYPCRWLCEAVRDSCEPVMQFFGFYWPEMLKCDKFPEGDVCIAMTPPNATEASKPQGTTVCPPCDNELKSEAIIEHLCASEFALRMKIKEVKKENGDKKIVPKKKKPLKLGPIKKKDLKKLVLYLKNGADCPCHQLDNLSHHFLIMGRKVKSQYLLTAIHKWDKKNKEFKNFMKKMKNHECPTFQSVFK

[2] = molecular target: T1, SFRP-1; experiment: Cell-based assay for in vitro measurement of SFRP-1/SARP2 antagonist activity (U2OS cells co-transfected with 16x TCF-tk-Luciferase reporter, Wnt and hSFRP-1); details: U2OS;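 also: U2OS cells co-transfected with a TCF-tk luciferase reporter, a Wnt vector, hSFRP-1 or empty vector and CMV-βgal, luciferase luminescence read in cell lysates alongside βgal activity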
[3] = read-out: Fold Induction with SFRP-1, Conc 15 μM, single dose, luciferase reporter, fold induction over SFRP-1 control, cells with SFRP-1
[4] = read-out: Fold Induction without SFRP-1, Conc 15 μM, single dose, luciferase reporter, cells without SFRP-1 (specificity control)

SMILES | IC50 [1] | fold induction at 15 µM [2, 3] | fold induction at 15 µM [2, 4] | fold induction at 15 µM ([2]; read-out: Fold Induction with SFRP-1) | fold induction at 15 µM ([2]; read-out: Fold Induction without SFRP-1)
Cc1nn(C)c(Cl)c1S(=O)(=O)c1ccc(C(C)C)c(S(=O)(=O)NC2CCOCC2)c1 [Example 569, 5-[(5-chloro-1,3-dimethyl-1H-pyrazol-4-yl)sulfonyl]-2-isopropyl-N-(tetrahydro-2H-pyran-4-yl)benzenesulfonamide] | 1.5 µM | – | – | 3.8 | 1.1
Cc1ccc(S(=O)(=O)c2ccc(F)cc2)cc1S(=O)(=O)NC1CCN(Cc2ccccc2)CC1 [Example 574, N-(1-benzylpiperidin-4-yl)-5-[(4-fluorophenyl)sulfonyl]-2-methylbenzenesulfonamide] | 6 µM | 2.1 | 1.2 | – | –
CC(C)c1ccc([S+]([O-])c2ccccc2)cc1S(=O)(=O)NCCc1ccccn1 (stereo not drawn) [Example 575, 2-isopropyl-5-(phenylsulfinyl)-N-(2-pyridin-2-ylethyl)benzenesulfonamide] | 1.8 µM | 2.6 | 1.1 | – | –
CC(=O)N1CCC(NS(=O)(=O)c2cc(S(=O)(=O)c3ccc(F)cc3)ccc2C)CC1 [Example 585, N-(1-acetylpiperidin-4-yl)-5-[(4-fluorophenyl)sulfonyl]-2-methylbenzenesulfonamide] | 8 µM | 2.7 | 1.1 | – | –
Cc1ccc(S(=O)(=O)c2ccc(F)cc2)cc1S(=O)(=O)NC1CCN(C(=O)c2ccc(C#N)cc2)CC1 [Example 586, N-[1-(4-cyanobenzoyl)piperidin-4-yl]-5-[(4-fluorophenyl)sulfonyl]-2-methylbenzenesulfonamide] | 2.4 µM | 1.9 | 1.1 | – | –
Cc1ccc(S(=O)(=O)c2ccc(F)cc2)cc1S(=O)(=O)NC1CCN(C(=O)N(C)C)CC1 [Example 587, 4-[({5-[(4-fluorophenyl)sulfonyl]-2-methylphenyl}sulfonyl)amino]-N,N-dimethylpiperidine-1-carboxamide] | 5 µM | 1.2 | 1.2 | – | –
COCC(=O)N1CCC(NS(=O)(=O)c2cc(S(=O)(=O)c3ccc(F)cc3)ccc2C)CC1 [Example 589, 5-[(4-fluorophenyl)sulfonyl]-N-[1-(methoxyacetyl)piperidin-4-yl]-2-methylbenzenesulfonamide] | 4 µM | 2.6 | 1.3 | – | –
CC(C)c1ccc([S@+]([O-])c2ccccc2)cc1S(=O)(=O)NCCc1ccccn1 [Example 590, 2-isopropyl-5-[(R)-phenylsulfinyl]-N-(2-pyridin-2-ylethyl)benzenesulfonamide] | 2 µM and 2.5 µM | 2.9 | 1 | – | –
CC(C)c1ccc([S@@+]([O-])c2ccccc2)cc1S(=O)(=O)NCCc1ccccn1 [Example 591, 2-isopropyl-5-[(S)-phenylsulfinyl]-N-(2-pyridin-2-ylethyl)benzenesulfonamide] | 5 µM and 6 µM | 3.1 | 1.3 | – | –
O=S(=O)(NCCc1ccccn1)c1cc(S(=O)(=O)c2ccccc2)ccc1Br [Example 592, 2-bromo-5-(phenylsulfonyl)-N-(2-pyridin-2-ylethyl)benzenesulfonamide] | 1 µM | 3.1 | 1.1 | – | –
CC(=O)c1cccc(S(=O)(=O)c2ccc(C(C)C)c(S(=O)(=O)NCCc3ccccn3)c2)c1C [Example 594, 5-[(3-acetyl-2-methylphenyl)sulfonyl]-2-isopropyl-N-(2-pyridin-2-ylethyl)benzenesulfonamide] | 4 µM | 2.3 | 1 | – | –
CC(C)c1ccc(S(=O)(=O)c2ccc(F)c(Cl)c2)cc1S(=O)(=O)NCCc1ccccn1 [Example 595, 5-[(3-chloro-4-fluorophenyl)sulfonyl]-2-isopropyl-N-(2-pyridin-2-ylethyl)benzenesulfonamide] | 1.2 µM | 3.4 | 1.4 | – | –
Cc1cc(F)ccc1S(=O)(=O)c1ccc(C(C)C)c(S(=O)(=O)NCCc2ccccn2)c1 [Example 596, 5-[(4-fluoro-2-methylphenyl)sulfonyl]-2-isopropyl-N-(2-pyridin-2-ylethyl)benzenesulfonamide] | 1.6 µM | 4.2 | 1.3 | – | –

Second part, led by results:

IC50 [1] | fold induction at 15 µM [2, 3] | fold induction at 15 µM [2, 4] | SMILES | fold induction at 15 µM ([2]; read-out: Fold Induction with SFRP-1) | fold induction at 15 µM ([2]; read-out: Fold Induction without SFRP-1)
0.5 µM | 3.8 | 1.1 | CNc1ccc(S(=O)(=O)c2ccc(C(C)C)c(S(=O)(=O)NC3CCNCC3)c2)cc1 [Example 568, 2-isopropyl-5-{[4-(methylamino)phenyl]sulfonyl}-N-piperidin-4-ylbenzenesulfonamide] | – | –
0.5 µM | 1.7 | 1 | CC(C)c1ccc(S(=O)(=O)c2ccc(F)cc2)cc1S(=O)(=O)NC1CCN(C(=O)N2CCOCC2)CC1 [Example 572, 5-[(4-fluorophenyl)sulfonyl]-2-isopropyl-N-[1-(morpholin-4-ylcarbonyl)piperidin-4-yl]benzenesulfonamide] | – | –
0.6 µM | 2.1 | 1.1 | CC(C)c1ccc(S(=O)(=O)c2ccc(F)cc2)cc1S(=O)(=O)NC1CCN(C(=O)N(C)C)CC1 [Example 573, 4-[({5-[(4-fluorophenyl)sulfonyl]-2-isopropylphenyl}sulfonyl)amino]-N,N-dimethylpiperidine-1-carboxamide] | – | –
0.7 µM | 1.9 | 1.2 | Cc1c(Br)cccc1S(=O)(=O)c1ccc(C(C)C)c(S(=O)(=O)NCCc2ccccn2)c1 [Example 577, 5-[(3-bromo-2-methylphenyl)sulfonyl]-2-isopropyl-N-(2-pyridin-2-ylethyl)benzenesulfonamide] | – | –
0.6 µM | 2.8 | 1.2 | Cc1cccc(Cl)c1S(=O)(=O)c1ccc(C(C)C)c(S(=O)(=O)NCCc2ccccn2)c1 [Example 578, 5-[(2-chloro-6-methylphenyl)sulfonyl]-2-isopropyl-N-(2-pyridin-2-ylethyl)benzenesulfonamide] | – | –
0.6 µM | 3.4 | 1 | Cc1cccc(S(=O)(=O)c2ccc(C(C)C)c(S(=O)(=O)NCCc3ccccn3)c2)c1 [Example 579, 2-isopropyl-5-[(3-methylphenyl)sulfonyl]-N-(2-pyridin-2-ylethyl)benzenesulfonamide] | – | –
0.7 µM | 2.8 | 1.3 | CC(C)c1ccc(S(=O)(=O)c2ccc(N(C)CCC#N)cc2)cc1S(=O)(=O)NC1CCOCC1 [Example 580, 5-({4-[(2-cyanoethyl)(methyl)amino]phenyl}sulfonyl)-2-isopropyl-N-(tetrahydro-2H-pyran-4-yl)benzenesulfonamide] | – | –
1 µM | 2.2 | 1.3 | CC(C)c1ccc(S(=O)(=O)c2ccc(N(C)CCC#N)cc2)cc1S(=O)(=O)NCC1CCOCC1 [Example 581, 5-({4-[(2-cyanoethyl)(methyl)amino]phenyl}sulfonyl)-2-isopropyl-N-(tetrahydro-2H-pyran-4-ylmethyl)benzenesulfonamide] | – | –
0.3 µM | 3.9 | 1.1 | Cc1nccn1CCNS(=O)(=O)c1cc(S(=O)(=O)c2ccc(F)cc2)ccc1C(C)C [Example 583, 5-[(4-fluorophenyl)sulfonyl]-2-isopropyl-N-[2-(2-methyl-1H-imidazol-1-yl)ethyl]benzenesulfonamide] | – | –
0.5 µM | 3.4 | 1.1 | CCc1nccn1CCNS(=O)(=O)c1cc(S(=O)(=O)c2ccc(F)cc2)ccc1C(C)C [Example 584, N-[2-(2-ethyl-1H-imidazol-1-yl)ethyl]-5-[(4-fluorophenyl)sulfonyl]-2-isopropylbenzenesulfonamide] | – | –
0.4 µM | 3.6 | 1.7 | CC(C)c1ccc(S(=O)(=O)c2ccc(F)cc2)cc1S(=O)(=O)NCCn1ccnc1C(C)C [Example 588, 5-[(4-fluorophenyl)sulfonyl]-2-isopropyl-N-[2-(2-isopropyl-1H-imidazol-1-yl)ethyl]benzenesulfonamide] | – | –
0.9 µM | 2 | 1.1 | Cc1c(C#N)cccc1S(=O)(=O)c1ccc(C(C)C)c(S(=O)(=O)NCCc2ccccn2)c1 [Example 593, 5-[(3-cyano-2-methylphenyl)sulfonyl]-2-isopropyl-N-(2-pyridin-2-ylethyl)benzenesulfonamide] | – | –
0.4 µM | 3.7 | 1.3 | CC(C)c1ccc(S(=O)(=O)c2ccc3c(ccn3C)c2)cc1S(=O)(=O)NCCc1ccccn1 [Example 597, 2-isopropyl-5-[(1-methyl-1H-indol-5-yl)sulfonyl]-N-(2-pyridin-2-ylethyl)benzenesulfonamide] | – | –
0.9 µM | 3.6 | 1.4 | COc1cccc(S(=O)(=O)c2ccc(C(C)C)c(S(=O)(=O)NC3CCOCC3)c2)c1 [Example 598, 2-isopropyl-5-[(3-methoxyphenyl)sulfonyl]-N-(tetrahydro-2H-pyran-4-yl)benzenesulfonamide] | – | –
